# Measurements from patent US11629335B2, “Methods of improving vector transduction efficiency into T lymphocytes” (CELGENE CORPORATION, priority 2014, dated 2023).
# Tests used:
# [1] = system: primary human T lymphocytes; experiment: Lentiviral transduction efficiency of primary human T lymphocytes with CAR vector JL28.2, FACS for VEGFR2+ cells; assay type: cell-based; settings: for transduced cells VEGFR2+: in presence of DD, MOI 1.8; for VEGFR2+ cells: 6 μM BX795 before and concurrently, nine hours total (Pre-treated+Concurrent); for VEGFR2 expression as compared to DD Only Control: day 3 and day 8
# Procedure: Lentivirus encoding the vector JL28.2 (VEGFR2-CD28TM-CD28IC-P2A-GFP), which encodes a chimeric antigen receptor composed of VEGFR2 and GFP protein, was added to the activated T lymphocyte culture at a multiplicity of infection (MOI) of 1.8. Fluorescence-activated cell sorting (FACS) was used to determine the proportion of T lymphocytes expressing VEGFR2 as a marker for successfully transduced cells.
# Transduced lymphocytes were then analyzed by FACS to determine the proportion of successfully transduced cells.
# T lymphocytes were cultured for eight days after transduction, and VEGFR2 expression was monitored at days 3 and 8 post-transduction.
# Cells were analyzed by FACS for viability.
# Primary human T lymphocytes were cultured as in Section 6.3.1 and analyzed by FACS for expression of VEGFR2.
# [2] = system: primary human T lymphocytes; experiment: Viability of primary human T lymphocytes after lentiviral transduction, by FACS; settings: absence of 2-AP, JL28.2 MOI 3, 50 U/ml IL-2; without DD or PS 84%
# Procedure: Primary human T lymphocytes were cultured in RPMI-1640 media supplemented with 10% (v/v) fetal bovine serum (FBS), and activated with anti-CD3/CD28 Dynabeads® at a Dynabead:T lymphocyte ratio of 3:1 for 24 hours. 2-Aminopurine (2-AP) was added to cultures and incubated for 90 minutes at 37 C. DEAE-dextran (DD) or protamine sulfate (PS) were added to the cultures in the presence of 50 U/ml IL-2 and JL28.2 lentiviral vector at an MOI of 3. Cells were analyzed by FACS for viability.
compound,measurement,setting,value
O=C(NCCCNc1nc(Nc2cccc(NC(=O)N3CCCC3)c2)ncc1I)c1cccs1 [BX795],transduced cells VEGFR2+,[1]; 1 μM BX795 added concurrently with lentivirus for six hours,7.63%
same,VEGFR2+ cells,[1]; day 3 post-transduction,18.4%
same,VEGFR2+ cells,[1]; day 8 post-transduction,10.6%
same,VEGFR2 expression level relative to DD Only cultures,[1]; 6 μM BX795 both before and during lentiviral transduction,roughly twice as high
same,VEGFR2 expression as compared to DD Only Control,[1]; 6 μM BX795 concurrently with lentiviral transduction for six hours (Concurrent),no improvement
same,VEGFR2 expression as compared to DD Only Control,[1]; 6 μM BX795 for three hours before lentiviral transduction (Pre-treated),increase
same,transduced cells VEGFR2+,[1]; 10 μM BX795 added concurrently with lentivirus for six hours,10.5%
protamine sulfate [PS],cells VEGFR2+,"[1]; transformation reagent alone, no 2-AP, JL28.2 MOI 3, without DD or PS 4.49%",0.565%
same,viable cells after lentiviral transduction,[2],84.9%
"Nc1ncc2[nH]cnc2n1 [2-AP, 2-Aminopurine]",transduction efficiency as compared to cells not exposed to 2-AP (Control),"[1]; 2-AP 2.5 mM, 5 mM or 10 mM, pretreated 90 minutes, then 5 hours with lentivirus, in presence of DD or PS",increased transduction efficiency
